Results reported in BindingDB's records for patent US9212173 (Genentech, 2015).

Biological target: Leucine-rich repeat serine/threonine-protein kinase 2 (Homo sapiens, UniProt Q5S007)
Test: Lanthascreen Binding Assay
Method: This assay was used to determine a compound's potency in inhibiting activity of LRRK2 by determining, Kiapp, IC50, or percent inhibition values. In 384 well proxiplates F black, shallow well plates LRRK2, Eu-anti-GST-antibody, Alexa Fluor Kinase tracer 236 and test compound were incubated together.Binding of the Alexa Fluor tracer to a kinase is detected by addition of a Eu-labeled anti-GST antibody. Binding of the tracer and antibody to a kinase results in a high degree of FRET, whereas displacement of the tracer with a kinase inhibitor results in a loss of FRET. Assay conditions and materials used were as follows: Final Assay Conditions: GST-LRRK2 G2019S 10 nM Eu-anti-GST-antibody 2 nM Kinase tracer 236 8.5 nM Kinase reaction time: 1 hour Temperature: ambient Total volume: 15 ul DMSO 1% Materials: 384 well proxiplates F black shallow cat# 6008260 well Perkin Elmer Kinase: LRRK2 G2019S, Invitrogen cat # PV4882(LOT 567054A).

Sequence of Leucine-rich repeat serine/threonine-protein kinase 2 (Q5S007 whole entry): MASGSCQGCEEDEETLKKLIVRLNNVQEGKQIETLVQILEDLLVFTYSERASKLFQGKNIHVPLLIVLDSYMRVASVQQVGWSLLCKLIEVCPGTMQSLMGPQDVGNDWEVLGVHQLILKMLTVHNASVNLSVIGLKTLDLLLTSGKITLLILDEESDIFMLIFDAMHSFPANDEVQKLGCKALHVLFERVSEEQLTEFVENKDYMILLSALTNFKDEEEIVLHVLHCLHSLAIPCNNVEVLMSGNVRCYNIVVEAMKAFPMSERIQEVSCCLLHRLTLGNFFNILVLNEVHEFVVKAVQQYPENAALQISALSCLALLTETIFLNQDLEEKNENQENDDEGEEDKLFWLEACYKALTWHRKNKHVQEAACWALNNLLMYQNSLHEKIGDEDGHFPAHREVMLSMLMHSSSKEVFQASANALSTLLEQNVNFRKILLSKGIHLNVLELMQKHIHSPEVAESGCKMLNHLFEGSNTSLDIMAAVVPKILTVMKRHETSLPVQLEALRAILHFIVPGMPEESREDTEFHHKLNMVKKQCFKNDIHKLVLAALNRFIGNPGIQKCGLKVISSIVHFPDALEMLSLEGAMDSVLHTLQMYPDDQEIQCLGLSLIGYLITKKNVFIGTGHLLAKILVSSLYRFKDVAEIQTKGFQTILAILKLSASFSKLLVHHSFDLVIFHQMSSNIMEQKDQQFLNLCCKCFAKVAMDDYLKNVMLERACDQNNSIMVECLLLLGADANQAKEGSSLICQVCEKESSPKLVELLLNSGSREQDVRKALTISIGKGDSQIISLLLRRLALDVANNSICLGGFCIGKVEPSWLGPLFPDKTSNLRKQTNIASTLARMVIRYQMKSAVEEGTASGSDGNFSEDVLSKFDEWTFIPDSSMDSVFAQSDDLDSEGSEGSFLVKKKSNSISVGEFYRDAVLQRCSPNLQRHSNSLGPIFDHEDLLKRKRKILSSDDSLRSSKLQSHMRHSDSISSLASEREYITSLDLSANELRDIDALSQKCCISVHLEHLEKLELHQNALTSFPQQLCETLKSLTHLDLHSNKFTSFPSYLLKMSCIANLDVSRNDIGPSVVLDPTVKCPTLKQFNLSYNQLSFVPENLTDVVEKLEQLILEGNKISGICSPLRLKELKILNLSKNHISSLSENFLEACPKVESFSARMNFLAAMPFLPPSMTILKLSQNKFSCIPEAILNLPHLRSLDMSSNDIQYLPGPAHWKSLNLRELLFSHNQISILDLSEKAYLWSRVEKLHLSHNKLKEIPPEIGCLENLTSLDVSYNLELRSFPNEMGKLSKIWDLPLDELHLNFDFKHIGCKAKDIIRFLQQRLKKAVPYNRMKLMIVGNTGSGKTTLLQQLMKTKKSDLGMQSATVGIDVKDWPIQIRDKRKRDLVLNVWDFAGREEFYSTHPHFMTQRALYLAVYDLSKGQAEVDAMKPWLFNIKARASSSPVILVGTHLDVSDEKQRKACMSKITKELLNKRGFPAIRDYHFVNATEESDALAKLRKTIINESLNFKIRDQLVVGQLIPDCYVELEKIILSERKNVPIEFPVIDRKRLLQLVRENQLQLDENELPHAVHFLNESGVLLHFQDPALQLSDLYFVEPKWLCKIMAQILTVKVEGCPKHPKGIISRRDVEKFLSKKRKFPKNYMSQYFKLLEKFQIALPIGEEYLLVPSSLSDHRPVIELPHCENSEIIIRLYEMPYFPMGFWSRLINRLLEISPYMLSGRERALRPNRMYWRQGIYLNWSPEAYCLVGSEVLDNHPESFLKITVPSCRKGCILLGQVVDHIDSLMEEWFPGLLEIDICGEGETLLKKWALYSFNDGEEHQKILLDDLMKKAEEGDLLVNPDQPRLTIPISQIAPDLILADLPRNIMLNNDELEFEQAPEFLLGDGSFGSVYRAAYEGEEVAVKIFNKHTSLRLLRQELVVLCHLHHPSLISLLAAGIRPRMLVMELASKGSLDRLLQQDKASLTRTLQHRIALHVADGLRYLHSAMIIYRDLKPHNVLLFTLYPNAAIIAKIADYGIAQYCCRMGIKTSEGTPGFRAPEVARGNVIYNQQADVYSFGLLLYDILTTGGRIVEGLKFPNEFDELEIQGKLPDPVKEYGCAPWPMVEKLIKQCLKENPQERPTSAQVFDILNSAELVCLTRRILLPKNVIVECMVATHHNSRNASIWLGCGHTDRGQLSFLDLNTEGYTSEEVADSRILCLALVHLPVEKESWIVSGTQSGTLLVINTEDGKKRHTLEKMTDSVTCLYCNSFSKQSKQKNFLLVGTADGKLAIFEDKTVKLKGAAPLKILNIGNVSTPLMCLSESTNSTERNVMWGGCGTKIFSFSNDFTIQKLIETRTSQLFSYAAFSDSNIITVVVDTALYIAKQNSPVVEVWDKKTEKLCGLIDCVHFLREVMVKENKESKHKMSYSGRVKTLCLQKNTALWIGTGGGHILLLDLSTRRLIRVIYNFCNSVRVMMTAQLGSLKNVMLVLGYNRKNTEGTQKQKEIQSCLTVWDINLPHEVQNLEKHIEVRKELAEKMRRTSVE

Ki [nM] | Structure (SMILES)
155 | CCn1cnnc1C(C)(C)n1cc(Nc2ncc(C(F)(F)F)c(NC)n2)c(Cl)n1 [US9212173, 11]
1.1 | CCNc1nc(Nc2cn(C(C)(C)c3ncn(CC)n3)nc2Cl)ncc1C(F)(F)F [US9212173, 14]
